From US11708359B2, “Monoacylglycerol lipase modulators” (Janssen Pharmaceutica NV, priority 2020, dated 2023)

What follows are compounds tested against human MGL from HeLa cells (Homo sapiens (Human), UniProt Q99685) (assay: MGL in vitro activity assay ([glycerol-1,3-3H]-oleoyl glycerol cleavage, activated carbon filter)). Conditions: 300 nM [Glycerol-1,3-3H]-oleoyl glycerol, endogenously expressed MGL from HeLa cells, one hour incubation; read-out: MGL IC50.
Format: biochemical
Summary of the method: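 Endogenous MGL in HeLa cells or homogenates was incubated with compound and 300 nM [glycerol-1,3-3H]-oleoyl glycerol for one hour. Reactions were filtered through activated carbon, and tritiated glycerol in the flow-through was counted as a measure of activity.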

Chain of human MGL from HeLa cells (Q99685 whole entry): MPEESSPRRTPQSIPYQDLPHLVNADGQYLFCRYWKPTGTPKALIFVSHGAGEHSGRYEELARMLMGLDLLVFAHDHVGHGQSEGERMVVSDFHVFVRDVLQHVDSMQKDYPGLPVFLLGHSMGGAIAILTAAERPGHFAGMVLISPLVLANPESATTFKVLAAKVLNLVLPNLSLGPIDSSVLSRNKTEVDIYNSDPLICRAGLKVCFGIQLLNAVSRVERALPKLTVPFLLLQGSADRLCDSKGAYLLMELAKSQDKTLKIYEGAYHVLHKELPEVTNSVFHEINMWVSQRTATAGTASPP

SMILES	IC50 [nM]
Cc1ccc([C@H]2[C@@H]3CN(C(=O)[C@H]4C[C@]5(COC(=O)N5)C4)C[C@@]32C)cc1C(F)(F)F (racemic) [Example 112, (rac)-(2s,4*S)-2-((1*R,5*S,6*R)-1-Methyl-6-(4-methyl-3-(trifluoromethyl)phenyl)-3-azabicyclo[3.1.0]hexane-3-carbonyl)-7-oxa-5-azaspiro[3.4]octan-6-one]	6
C[C@]12CN(C(=O)[C@H]3C[C@]4(COC(=O)N4)C3)C[C@H]1[C@@H]2c1cccc(C(F)(F)F)c1 (racemic) [Example 106, (rac)-(2s,4*5)-2-((1*R,5*S,6*R)-1-Methyl-6-(3-(trifluoromethyl)phenyl)-3-azabicyclo[3.1.0]hexane-3-carbonyl)-7-oxa-5-azaspiro[3.4]octan-6-one]	28
O=C1N[C@]2(CO1)C[C@H](C(=O)N1CCC3(c4ccccc4)C(Cl)C3C1)C2 (mixture of isomers) [Example 123, (rac)-(2s,4s)-2-(7-Chloro-6-phenyl-3-azabicyclo[4.1.0]heptane-3-carbonyl)-7-oxa-5-azaspiro[3.4]octan-6-one]	200
CC1(c2ccc(C34CC3CN(C(=O)[C@H]3C[C@]5(CCC(=O)N5)C3)C4)cc2)CC1 (mixture of isomers) [Example 27, (rac)-(2r,4s)-2-(1-(4-(1-Methylcyclopropyl)phenyl)-3-azabicyclo[3.1.0]hexane-3-carbonyl)-5-azaspiro[3.4]octan-6-one]	9.5
Cc1ccc(C23CC2CN(C(=O)[C@H]2C[C@]4(COC(=O)N4)C2)C3)cc1F (mixture of isomers) [Example 37, (rac)-(2s,4s)-2-(1-(3-Fluoro-4-methylphenyl)-3-azabicyclo[3.1.0]hexane-3-carbonyl)-7-oxa-5-azaspiro[3.4]octan-6-one]	10
O=C1CCC2(CC(C(=O)N3CC[C@@]4(c5cccc(OC(F)(F)F)c5)C[C@H]4C3)C2)N1 (relative stereo) [Example 119, (2r,4*5)-2-((1*R,6*5)-6-(3-(Trifluoromethoxy)phenyl)-3-azabicyclo[4.1.0]heptane-3-carbonyl)-5-azaspiro[3.4]octan-6-one]	5.2
CC1(c2ccc([C@]34C[C@H]3CN(C(=O)[C@H]3C[C@]5(CCC(=O)N5)C3)C4)cc2)CC1 (stereo in doubt) [Example 96, (2r,4*R)-2-((1*S,5*R)-1-(4-(1-Methylcyclopropyl)phenyl)-3-azabicyclo[3.1.0]hexane-3-carbonyl)-5-azaspiro[3.4]octan-6-one]	8.5
CC(C)(C)c1ccc([C@]23C[C@H]2CN(C(=O)[C@H]2C[C@]4(CCC(=O)N4)C2)C3)cc1 (stereo in doubt) [Example 15, (2r,4*R)-2-((1*S,5*R)-1-(4-(tert-Butyl)phenyl)-3-azabicyclo[3.1.0]hexane-3-carbonyl)-5-azaspiro[3.4]octan-6-one]	12
Cc1ccc([C@H]2[C@@H]3CN(C(=O)[C@H]4C[C@]5(COC(=O)N5)C4)C[C@@]32C)cc1C (racemic) [Example 102, (rac)-(2s,4*5)-2-((1*R,5*S,6*R)-6-(3,4-Dimethylphenyl)-1-methyl-3-azabicyclo[3.1.0]hexane-3-carbonyl)-7-oxa-5-azaspiro[3.4]octan-6-one]	23
O=C1N[C@]2(CO1)C[C@H](C(=O)N1CC[C@]3(c4ccccc4)C[C@@H]3C1)C2 [Example 41, (2s,4R)-2-((1S,6R)-6-Phenyl-3-azabicyclo[4.1.0]heptane-3-carbonyl)-7-oxa-5-azaspiro[3.4]octan-6-one]	9.6
CC(C)c1cccc([C@]23C[C@H]2CN(C(=O)[C@H]2C[C@]4(COC(=O)N4)C2)C3)c1 (stereo in doubt) [Example 8, (2s,4*R)-2-((1*S,5*R)-1-(3-Isopropylphenyl)-3-azabicyclo[3.1.0]hexane-3-carbonyl)-7-oxa-5-azaspiro[3.4]octan-6-one]	11
O=C1CCC2(CC(C(=O)N3CC[C@@]4(c5ccc(OC(F)(F)F)cc5)C[C@H]4C3)C2)N1 (relative stereo) [Example 121, (2r,4*5)-2-((1*R,6*S)-6-(4-(Trifluoromethoxy)phenyl)-3-azabicyclo[4.1.0]heptane-3-carbonyl)-5-azaspiro[3.4]octan-6-one]	42
Cc1ccccc1C12CC1CN(C(=O)[C@H]1C[C@]3(COC(=O)N3)C1)C2 (mixture of isomers) [Example 20, (rac)-(2s,4s)-2-(1-(o-Tolyl)-3-azabicyclo[3.1.0]hexane-3-carbonyl)-7-oxa-5-azaspiro[3.4]octan-6-one]	6.5
Cc1ccc([C@]23CCN(C(=O)[C@H]4C[C@]5(COC(=O)N5)C4)C[C@H]2C3)cc1F (stereo in doubt) [Example 47, (2s,4*R)-2-((1*S,6*R)-6-(3-Fluoro-4-methylphenyl)-3-azabicyclo[4.1.0]heptane-3-carbonyl)-7-oxa-5-azaspiro[3.4]octan-6-one]	21
O=C1CC[C@]2(C[C@H](C(=O)N3C[C@@H]4[C@H](C3)[C@H]4c3ccc(C(F)(F)F)cc3)C2)N1 [Example 81, (2r,4S)-2-((1R,5S,6S)-6-(4-(Trifluoromethyl)phenyl)-3-azabicyclo[3.1.0]hexane-3-carbonyl)-5-azaspiro[3.4]octan-6-one]	206
CC(C)c1ccc([C@H]2[C@@H]3CN(C(=O)[C@H]4C[C@]5(CCC(=O)N5)C4)C[C@@H]32)cc1 [Example 91, (2r,4S)-2-((1R,5S,6S)-6-(4-Isopropylphenyl)-3-azabicyclo[3.1.0]hexane-3-carbonyl)-5-azaspiro[3.4]octan-6-one]	20

Further lines, results first:

IC50 [nM]	SMILES
0.25	CC(C)c1cccc(C23CCN(C(=O)[C@H]4C[C@]5(COC(=O)N5)C4)CC2C3)c1 (mixture of isomers) [Example 73, (rac)-(2s,4s)-2-(6-(3-Isopropylphenyl)-3-azabicyclo[4.1.0]heptane-3-carbonyl)-7-oxa-5-azaspiro[3.4]octan-6-one]
4.4	Cc1ccc([C@H]2[C@@H]3CN(C(=O)[C@H]4C[C@]5(COC(=O)N5)C4)C[C@@H]32)cc1C(F)(F)F [Example 85, (2s,4S)-2-((1R,5S,6S)-6-(4-Methyl-3-(trifluoromethyl)phenyl)-3-azabicyclo[3.1.0]hexane-3-carbonyl)-7-oxa-5-azaspiro[3.4]octan-6-one]
0.65	O=C1N[C@]2(CO1)C[C@H](C(=O)N1CCC3(c4cccc(C5CC5)c4)CC3C1)C2 (mixture of isomers) [Example 64, (rac)-(2s,4s)-2-(6-(3-Cyclopropylphenyl)-3-azabicyclo[4.1.0]heptane-3-carbonyl)-7-oxa-5-azaspiro[3.4]octan-6-one]
0.41	CC(C)(C)c1ccc(C23CCN(C(=O)[C@H]4C[C@]5(CCC(=O)N5)C4)CC2C3)cc1 (mixture of isomers) [Example 63, (rac)-(2r,4s)-2-(6-(4-(tert-Butyl)phenyl)-3-azabicyclo[4.1.0]heptane-3-carbonyl)-5-azaspiro[3.4]octan-6-one]
1.7	O=C1N[C@]2(CO1)C[C@H](C(=O)N1CC3CC3(c3ccc(Oc4ccccc4)cc3)C1)C2 (mixture of isomers) [Example 28, (rac)-(2s,4s)-2-(1-(4-Phenoxyphenyl)-3-azabicyclo[3.1.0]hexane-3-carbonyl)-7-oxa-5-azaspiro[3.4]octan-6-one]
0.69	O=C1N[C@]2(CO1)C[C@H](C(=O)N1CCC3(c4ccc(C5CC5)cc4)CC3C1)C2 (mixture of isomers) [Example 66, (rac)-(2s,4s)-2-(6-(4-Cyclopropylphenyl)-3-azabicyclo[4.1.0]heptane-3-carbonyl)-7-oxa-5-azaspiro[3.4]octan-6-one]
2.1	Cc1cc(C2CC2)ccc1C12CCN(C(=O)[C@H]3C[C@]4(COC(=O)N4)C3)CC1C2 (mixture of isomers) [Example 72, (rac)-(2s,4s)-2-(6-(4-Cyclopropyl-2-methylphenyl)-3-azabicyclo[4.1.0]heptane-3-carbonyl)-7-oxa-5-azaspiro[3.4]octan-6-one]
5.2	CC(C)(C)c1cccc([C@H]2[C@@H]3CN(C(=O)[C@H]4C[C@]5(COC(=O)N5)C4)C[C@@H]32)n1 [Example 116, (2s,4S)-2-((1R,5S,6R)-6-(6-(tert-Butyl)pyridin-2-yl)-3-azabicyclo[3.1.0]hexane-3-carbonyl)-7-oxa-5-azaspiro[3.4]octan-6-one]
3.7	Cc1ccc(C23CCN(C(=O)[C@H]4C[C@]5(COC(=O)N5)C4)CC2C3)cc1F (mixture of isomers) [Example 46, (rac)-(2s,4s)-2-(6-(3-Fluoro-4-methylphenyl)-3-azabicyclo[4.1.0]heptane-3-carbonyl)-7-oxa-5-azaspiro[3.4]octan-6-one]
2.3	CC(C)c1ccc([C@]23C[C@H]2CN(C(=O)[C@H]2C[C@]4(COC(=O)N4)C2)C3)cc1 (stereo in doubt) [Example 11, (2s,4*R)-2-((1*S,5*R)-1-(4-Isopropylphenyl)-3-azabicyclo[3.1.0]hexane-3-carbonyl)-7-oxa-5-azaspiro[3.4]octan-6-one]
0.76	CC(C)(C)c1cccc([C@H]2[C@@H]3CN(C(=O)[C@H]4C[C@]5(COC(=O)N5)C4)C[C@@]32C)c1 (stereo in doubt) [Example 93, (rac)-(2s,4*5)-2-((1*R,5*S,6*R)-6-(3-(tert-Butyl)phenyl)-1-methyl-3-azabicyclo[3.1.0]hexane-3-carbonyl)-7-oxa-5-azaspiro[3.4]octan-6-one]
0.0072	CC(C)(C)c1cccc(C23CCN(C(=O)[C@H]4C[C@]5(COC(=O)N5)C4)CC2C3)c1 (mixture of isomers) [Example 60, (rac)-(2s,4s)-2-(6-(3-(tert-Butyl)phenyl)-3-azabicyclo[4.1.0]heptane-3-carbonyl)-7-oxa-5-azaspiro[3.4]octan-6-one]
5	CC(C)c1cccc([C@@]23C[C@@H]2CN(C(=O)[C@H]2C[C@]4(COC(=O)N4)C2)C3)c1 (stereo in doubt) [Example 7, (2s,4*5)-2-((1*R,5*5)-1-(3-Isopropylphenyl)-3-azabicyclo[3.1.0]hexane-3-carbonyl)-7-oxa-5-azaspiro[3.4]octan-6-one]
